Source: PubChem BioAssay (NCI)
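Grown in 96-well plates, cells were treated for 48 hours with each compound at five concentrations. Insufficient inhibition: endpoint recorded as highest concentration tested. At the TGI there is no net growth.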

Columns and labels:
Assay in all cases: DTP human tumour cell line panel, 48 h
786-0 renal = tested on: 786-0 renal
A498 renal = tested on: A498 renal
A549 NSCLC = tested on: A549 NSCLC
ACHN renal = tested on: ACHN renal
CCRF-CEM leukemia = tested on: CCRF-CEM leukemia
COLO 205 colon = tested on: COLO 205 colon
DLD-1 colon = tested on: DLD-1 colon
DMS 114 small cell lung = tested on: DMS 114 small cell lung
DMS 273 small cell lung = tested on: DMS 273 small cell lung
EKVX NSCLC = tested on: EKVX NSCLC
HCC-2998 colon = tested on: HCC-2998 colon
HCT-15 colon = tested on: HCT-15 colon
HL-60(TB) leukemia = tested on: HL-60(TB) leukemia
HOP-18 NSCLC = tested on: HOP-18 NSCLC
HT29 colon = tested on: HT29 colon
IGROV1 ovarian = tested on: IGROV1 ovarian
K-562 leukemia = tested on: K-562 leukemia
KM12 colon = tested on: KM12 colon
LOX IMVI melanoma = tested on: LOX IMVI melanoma
LXFL 529 NSCLC = tested on: LXFL 529 NSCLC
M14 melanoma = tested on: M14 melanoma
M19-MEL melanoma = tested on: M19-MEL melanoma
MALME-3M melanoma = tested on: MALME-3M melanoma
MOLT-4 leukemia = tested on: MOLT-4 leukemia
NCI-H226 lung = tested on: NCI-H226 lung
NCI-H23 lung = tested on: NCI-H23 lung
NCI-H460 lung = tested on: NCI-H460 lung
OVCAR-3 ovarian = tested on: OVCAR-3 ovarian
OVCAR-4 ovarian = tested on: OVCAR-4 ovarian
OVCAR-5 ovarian = tested on: OVCAR-5 ovarian
OVCAR-8 ovarian = tested on: OVCAR-8 ovarian
RPMI-8226 leukemia = tested on: RPMI-8226 leukemia
RXF 393 renal = tested on: RXF 393 renal
RXF-631 renal = tested on: RXF-631 renal
SF-268 CNS = tested on: SF-268 CNS
SF-295 CNS = tested on: SF-295 CNS
SF-539 CNS = tested on: SF-539 CNS
SK-MEL-28 melanoma = tested on: SK-MEL-28 melanoma
SK-MEL-5 melanoma = tested on: SK-MEL-5 melanoma
SK-OV-3 ovarian = tested on: SK-OV-3 ovarian
SN12C renal = tested on: SN12C renal
SNB-19 CNS = tested on: SNB-19 CNS
SNB-75 CNS = tested on: SNB-75 CNS
SNB-78 CNS = tested on: SNB-78 CNS
SR leukemia = tested on: SR leukemia
SW-620 colon = tested on: SW-620 colon
TK-10 renal = tested on: TK-10 renal
U251 CNS = tested on: U251 CNS
UACC-62 melanoma = tested on: UACC-62 melanoma
UO-31 renal = tested on: UO-31 renal
CAKI-1 renal = tested on: CAKI-1 renal
HOP-62 NSCLC = tested on: HOP-62 NSCLC
HOP-92 NSCLC = tested on: HOP-92 NSCLC
KM20L2 colon = tested on: KM20L2 colon
NCI-H522 lung = tested on: NCI-H522 lung
SK-MEL-2 melanoma = tested on: SK-MEL-2 melanoma
UACC-257 melanoma = tested on: UACC-257 melanoma
HCT-116 colon = tested on: HCT-116 colon

Q: How did the TGI (786-0 renal) turn out when `O=C1C2c3[nH]c4ccccc4c3C3CCCCC3C2C(=O)N1c1ccccc1` (configuration not stated) was run?
A: The TGI was over 100 µM.

Q: And the TGI (A498 renal)?
A: The TGI was over 100 µM.

Q: And the TGI (A549 NSCLC)?
A: Its TGI is over 100 µM.

Q: And the TGI (ACHN renal)?
A: Its TGI is over 100 µM.

Q: What about the TGI (CCRF-CEM leukemia) of the same compound?
A: The TGI was over 100 µM.

Q: What about the TGI (COLO 205 colon) of the same compound?
A: Its TGI is over 100 µM.

Q: And the TGI (DLD-1 colon)?
A: Its TGI is over 100 µM.

Q: And the TGI (DMS 114 small cell lung)?
A: The TGI was over 100 µM.

Q: What about the TGI (DMS 273 small cell lung) of the same compound?
A: Its TGI is over 100 µM.

Q: And the TGI (EKVX NSCLC)?
A: Its TGI is over 100 µM.

Q: And the TGI (HCC-2998 colon)?
A: The TGI was over 100 µM.

Q: And the TGI (HCT-15 colon)?
A: The TGI was over 100 µM.

Q: And the TGI (HL-60(TB) leukemia)?
A: Its TGI is over 100 µM.

Q: And the TGI (HOP-18 NSCLC)?
A: The TGI was 95.2 µM.

Q: What about the TGI (HT29 colon) of the same compound?
A: The TGI was over 100 µM.

Q: And the TGI (IGROV1 ovarian)?
A: The TGI was over 100 µM.

Q: What about the TGI (K-562 leukemia) of the same compound?
A: Its TGI is over 100 µM.

Q: What about the TGI (KM12 colon) of the same compound?
A: Its TGI is over 100 µM.

Q: And the TGI (LOX IMVI melanoma)?
A: The TGI was over 100 µM.

Q: What about the TGI (LXFL 529 NSCLC) of the same compound?
A: The TGI was over 100 µM.

Q: And the TGI (M14 melanoma)?
A: The TGI was over 100 µM.

Q: What about the TGI (M19-MEL melanoma) of the same compound?
A: Its TGI is over 100 µM.

Q: And the TGI (MALME-3M melanoma)?
A: Its TGI is over 100 µM.

Q: What about the TGI (MOLT-4 leukemia) of the same compound?
A: The TGI was over 100 µM.

Q: What about the TGI (NCI-H226 lung) of the same compound?
A: The TGI was over 100 µM.

Q: What about the TGI (NCI-H23 lung) of the same compound?
A: The TGI was over 100 µM.

Q: What about the TGI (NCI-H460 lung) of the same compound?
A: The TGI was over 100 µM.

Q: What about the TGI (OVCAR-3 ovarian) of the same compound?
A: The TGI was over 100 µM.

Q: What about the TGI (OVCAR-4 ovarian) of the same compound?
A: Its TGI is over 100 µM.

Q: And the TGI (OVCAR-5 ovarian)?
A: The TGI was over 100 µM.

Q: What about the TGI (OVCAR-8 ovarian) of the same compound?
A: Its TGI is over 100 µM.

Q: What about the TGI (RPMI-8226 leukemia) of the same compound?
A: Its TGI is over 100 µM.

Q: What about the TGI (RXF 393 renal) of the same compound?
A: Its TGI is 62.3 µM.

Q: What about the TGI (RXF-631 renal) of the same compound?
A: The TGI was over 100 µM.

Q: And the TGI (SF-268 CNS)?
A: The TGI was over 100 µM.

Q: What about the TGI (SF-295 CNS) of the same compound?
A: The TGI was over 100 µM.

Q: And the TGI (SF-539 CNS)?
A: Its TGI is over 100 µM.

Q: And the TGI (SK-MEL-28 melanoma)?
A: Its TGI is over 100 µM.

Q: What about the TGI (SK-MEL-5 melanoma) of the same compound?
A: Its TGI is over 100 µM.

Q: And the TGI (SK-OV-3 ovarian)?
A: Its TGI is 52.4 µM.

Q: What about the TGI (SN12C renal) of the same compound?
A: Its TGI is over 100 µM.

Q: What about the TGI (SNB-19 CNS) of the same compound?
A: Its TGI is over 100 µM.

Q: What about the TGI (SNB-75 CNS) of the same compound?
A: The TGI was 32.9 µM.

Q: And the TGI (SNB-78 CNS)?
A: Its TGI is over 100 µM.

Q: And the TGI (SR leukemia)?
A: The TGI was over 100 µM.

Q: And the TGI (SW-620 colon)?
A: The TGI was over 100 µM.

Q: What about the TGI (TK-10 renal) of the same compound?
A: Its TGI is over 100 µM.

Q: What about the TGI (U251 CNS) of the same compound?
A: Its TGI is over 100 µM.

Q: And the TGI (UACC-62 melanoma)?
A: The TGI was over 100 µM.

Q: And the TGI (UO-31 renal)?
A: The TGI was over 100 µM.

Q: What does the source list for `N#CC(C#N)=C1NN=C(Cl)c2ccccc21`?
A: TGI (786-0 renal): > 100 µM; TGI (A549 NSCLC): > 100 µM; TGI (ACHN renal): > 100 µM; TGI (CAKI-1 renal): > 100 µM; TGI (CCRF-CEM leukemia): > 100 µM; TGI (COLO 205 colon): > 100 µM; TGI (DLD-1 colon): > 100 µM; TGI (DMS 114 small cell lung): > 100 µM; TGI (DMS 273 small cell lung): > 100 µM; TGI (EKVX NSCLC): > 100 µM; TGI (HCC-2998 colon): > 100 µM; TGI (HCT-15 colon): > 100 µM; TGI (HL-60(TB) leukemia): > 100 µM; TGI (HOP-18 NSCLC): > 100 µM; TGI (HOP-62 NSCLC): > 100 µM; TGI (HOP-92 NSCLC): > 100 µM; TGI (HT29 colon): > 100 µM; TGI (IGROV1 ovarian): > 100 µM; TGI (K-562 leukemia): > 100 µM; TGI (KM12 colon): > 100 µM; TGI (KM20L2 colon): > 100 µM; TGI (LOX IMVI melanoma): > 100 µM; TGI (LXFL 529 NSCLC): > 100 µM; TGI (M14 melanoma): > 100 µM; TGI (M19-MEL melanoma): > 100 µM; TGI (MALME-3M melanoma): > 100 µM; TGI (MOLT-4 leukemia): > 100 µM; TGI (NCI-H23 lung): > 100 µM; TGI (NCI-H460 lung): > 100 µM; TGI (NCI-H522 lung): > 100 µM; TGI (OVCAR-3 ovarian): > 100 µM; TGI (OVCAR-4 ovarian): > 100 µM; TGI (OVCAR-5 ovarian): > 100 µM; TGI (OVCAR-8 ovarian): > 100 µM; TGI (RPMI-8226 leukemia): > 100 µM; TGI (RXF 393 renal): > 100 µM; TGI (RXF-631 renal): > 100 µM; TGI (SF-268 CNS): > 100 µM; TGI (SF-295 CNS): > 100 µM; TGI (SF-539 CNS): > 100 µM; TGI (SK-MEL-2 melanoma): > 100 µM; TGI (SK-MEL-28 melanoma): > 100 µM; TGI (SK-MEL-5 melanoma): > 100 µM; TGI (SK-OV-3 ovarian): > 100 µM; TGI (SN12C renal): > 100 µM; TGI (SNB-75 CNS): > 100 µM; TGI (SW-620 colon): > 100 µM; TGI (TK-10 renal): > 100 µM; TGI (U251 CNS): > 100 µM; TGI (UACC-257 melanoma): > 100 µM; TGI (UACC-62 melanoma): > 100 µM; TGI (UO-31 renal): > 100 µM

Q: Which results are given for `Cn1cnc([N+](=O)[O-])c1Sc1nc2ccccc2s1`?
A: TGI (786-0 renal): 24.7 µM; TGI (A549 NSCLC): 22.8 µM; TGI (ACHN renal): 28.8 µM; TGI (CAKI-1 renal): 6.9 µM; TGI (COLO 205 colon): 14.5 µM; TGI (DLD-1 colon): 18.1 µM; TGI (DMS 114 small cell lung): 14.9 µM; TGI (DMS 273 small cell lung): 2.71 µM; TGI (EKVX NSCLC): 17.8 µM; TGI (HCC-2998 colon): 22 µM; TGI (HCT-116 colon): 18.7 µM; TGI (HCT-15 colon): 14.6 µM; TGI (HOP-18 NSCLC): 0.902 µM; TGI (HOP-62 NSCLC): 86.1 µM; TGI (HOP-92 NSCLC): 14.3 µM; TGI (HT29 colon): 28.5 µM; TGI (IGROV1 ovarian): 25.2 µM; TGI (KM12 colon): 29.3 µM; TGI (KM20L2 colon): 23.5 µM; TGI (LOX IMVI melanoma): 31 µM; TGI (LXFL 529 NSCLC): 24.7 µM; TGI (M14 melanoma): 29 µM; TGI (M19-MEL melanoma): 24.3 µM; TGI (MALME-3M melanoma): 13.2 µM; TGI (MOLT-4 leukemia): 4.91 µM; TGI (NCI-H226 lung): 22.1 µM; TGI (NCI-H23 lung): 23.9 µM; TGI (NCI-H460 lung): 24.3 µM; TGI (OVCAR-3 ovarian): 14.5 µM; TGI (OVCAR-4 ovarian): 13.1 µM; TGI (OVCAR-5 ovarian): 27.9 µM; TGI (OVCAR-8 ovarian): 17.6 µM; TGI (RPMI-8226 leukemia): 43.1 µM; TGI (RXF 393 renal): 8.22 µM; TGI (RXF-631 renal): 16.9 µM; TGI (SF-268 CNS): 20.7 µM; TGI (SF-295 CNS): 44.6 µM; TGI (SF-539 CNS): 25.1 µM; TGI (SK-MEL-28 melanoma): 21.1 µM; TGI (SK-MEL-5 melanoma): 27.1 µM; TGI (SK-OV-3 ovarian): 29.5 µM; TGI (SN12C renal): 17.6 µM; TGI (SNB-19 CNS): 29.4 µM; TGI (SNB-75 CNS): 29.3 µM; TGI (SNB-78 CNS): 33 µM; TGI (SR leukemia): 13.2 µM; TGI (SW-620 colon): 15.1 µM; TGI (U251 CNS): 24.4 µM; TGI (UACC-62 melanoma): 25.7 µM; TGI (UO-31 renal): 21.5 µM
